Results taken from PMC10065799, “High-throughput profiling of sequence recognition by tyrosine kinases and SH2 domains using bacterial peptide display” (eLife, 2023).

Columns and labels:
c-Abl kinase domain [1] = target: T1, c-Abl kinase domain (Mus musculus, UniProt P00520); test: ADP-Quest continuous fluorimetric kinase assay (Michaelis-Menten parameters and initial rates); format: biochemical; details: c-Abl kinase domain 10 nM, 100 μM ATP, 37 °C, three to five replicates, error = standard error of global Michaelis-Menten fit
T1 sequence (P00520 242-493 limits assumed): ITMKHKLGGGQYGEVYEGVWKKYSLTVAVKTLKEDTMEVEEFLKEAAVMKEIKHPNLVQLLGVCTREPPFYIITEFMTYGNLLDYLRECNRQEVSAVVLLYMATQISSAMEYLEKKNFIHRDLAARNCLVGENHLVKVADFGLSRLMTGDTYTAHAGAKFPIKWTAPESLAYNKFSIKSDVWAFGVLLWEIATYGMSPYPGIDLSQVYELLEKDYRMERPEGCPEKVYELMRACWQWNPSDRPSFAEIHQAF
Text: A fluorescence-based assay from Eurofins (ADP Quest) was used to measure the Michaelis-Menten kinetic parameters for phosphorylation of the consensus peptides by purified tyrosine kinase domains. In this assay, ADP production as a result of kinase activity is coupled to the production of resorufin, a fluorophore that emits signal at 590 nm. For all experiments, the assay reactions were set up as described in the provided assay kit protocol, in a 384 well plate format. The peptide solutions were serially diluted in 100 mM Tris, pH 8.0, and the kinases were diluted to 50 nM in buffer (10 mM HEPES, 100 mM NaCl, 1 mM TCEP, 5 mM MgCl2, 10% (v/v) glycerol). The final reaction mixtures contained 10 nM of kinase with 100 μM of ATP. […] Phosphorylation reaction progress was monitored by measuring fluorescence at excitation 530 nm and emission 590 nm every 2 min at 37 °C on a plate reader (BioTek Synergy Neo 2). The fluorescence units (RFU) were converted to μM ADP by comparison to a standard curve, and the initial rates were extracted from the linear regime of the reaction progress curves. Initial rates were also measured for samples containing each kinase but lacking a peptide substrate, to account for background ATP hydrolysis. This background rate was subtracted from the rates measured in the presence of peptide. […]

c-Src kinase domain [2] = target: T2, c-Src kinase domain (Homo sapiens, UniProt P12931); test: RP-HPLC assay to measure peptide phosphorylation kinetics; format: biochemical; details: purified peptide substrate
c-Src kinase domain [3] = target: T2, c-Src kinase domain; test: pTyr-Var library bacterial peptide display kinase screen (enrichment scores); format: biochemical;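 on Fer hit?: Hit requires p below 0.05 and at least twofold variant vs reference change plus filters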;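 on c-Abl hit?: Hit requires p below 0.05 and at least twofold variant vs reference change plus filters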;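 on c-Src hit?: Hit requires p below 0.05 and at least twofold variant vs reference change plus filters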;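 on screen: log2 fold change in enrichment of variant over reference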
Fer kinase domain = test: as above; format: biochemical, mouse
EPHB1 kinase domain = test: as above; format: biochemical, human
EPHB2 kinase domain = test: as above; format: biochemical, human
FGFR3 kinase domain = test: as above; format: biochemical, human
Fes = test: as above; format: biochemical
FGFR1 kinase domain [4] = test: as above; format: biochemical, human
c-Abl kinase domain [5] = target: T1, c-Abl kinase domain; test: as above; format: biochemical
Jak2 = test: as above; format: biochemical, human
Grb2 SH2 domain = test: pTyr-Var library SH2 domain screen with SH2-dynabeads (enrichment scores)
AncSZ kinase domain = test: pTyr-Var library bacterial peptide display kinase screen (enrichment scores); format: biochemical;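 on AncSZ hit?: Hit requires p below 0.05 and at least twofold variant vs reference change plus filters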
c-Src SH2 domain = c-Src SH2 domain (Homo sapiens, UniProt P12931); test: pTyr-Var library SH2 domain screen with SH2-dynabeads (enrichment scores); details: sheet c-Src
SHP2 C-SH2 domain = test: as above
Fyn kinase domain [6] = test: pTyr-Var library bacterial peptide display kinase screen (enrichment scores); format: biochemical, human
Hck kinase domain = test: as above; format: biochemical, human
MERTK kinase domain = test: as above; format: biochemical, human
[7] = target: human c-Src kinase domain (residues 260-528) (human) (UniProt P12931)
FGFR1 kinase domain [8] = test: LC-MS assay of intact SHP2 protein phosphorylation; format: biochemical, human; details: SHP2 10 μM, kinase 1 μM, 1 hr, 37 °C, 2 to 3 measurements
Experimental: (§1) The same protocol used to express and purify SH2 domains, excluding co-expression of BirA and addition of biotin, was applied to the expression and purification of the SHP2 variants.
(§2) To pre-activate the kinases, 1 μM of each purified kinase domain was preincubated at 37 °C for 30 min in the same buffer conditions used in the kinase domain peptide display screen, with 1 mM ATP. The reaction of the kinase with SHP2 was initiated with the addition of 10 μM SHP2, and the mixture was incubated in 37 °C for 1 hr. To terminate the reaction, the mixture was quenched with 200 mM EDTA. The reaction mixture was diluted 3:2 in water and injected onto a BEH C8 column (Waters) on a UPLC-MS system (Xevo QToF, Waters). Reverse-phase liquid chromatography was carried out at 0.3 mL/min with solvents A (H2O, 0.1% (v/v) formic acid) and B (acetonitrile, 0.1% (v/v) formic acid). Proteins were eluted over a gradient of 5–95% B for 8.5 min. The protein peak on the chromatogram was deconvoluted using the MaxEnt1 algorithm from 32,000–65,000 Da with a resolution of 1 Da/channel over 30 iterations. Peaks were chosen according to the theoretical MW of the protein within a range of 5 Da, and integrated for the signal intensity.

Fyn kinase domain [9] = test: LC-MS assay of intact SHP2 protein phosphorylation; format: biochemical, human; details: SHP2 10 μM, kinase 1 μM, 1 hr, 37 °C, 2 to 3 measurements
Experimental: as §1, §2

[10] = mean of log2 of enrichment over R1-R4
[11] = pTyr-Var library, enrichment score, replicate 1
[12] = pTyr-Var library, enrichment score, replicate 3
[13] = pTyr-Var library, enrichment score, replicate 4
[14] = variant versus reference peptide
[15] = variant versus reference peptide, significant hit TRUE/FALSE
[16] = mean of log2(variant) minus mean of log2(reference)
[17] = mean of log2 enrichment of variant peptide, n = 4
[18] = mean of log2 enrichment of variant peptide, n = 5

Ac-GAPEVIYATPGAKKKG-NH2 [AblTide (2014), previously reported c-Abl consensus substrate]
Km (c-Abl kinase domain [1]): 35 ± 8 µM
kcat (c-Abl kinase domain [1]): 2.5±0.2 s^–1

Ac-GPDESIYDMFPFKKKG-NH2 [Src Consensus (C-2S), Src Consensus variant with –2 Ser]
Phosphorylation Rate (c-Src kinase domain [2]): 5.171 s⁻¹

Ac-LERFIYNREEL-NH2 [HLA-DPB1_Y59_F64L_YF, pTyr-Var library variant peptide, non-canonical c-Src substrate]
Screen (c-Src kinase domain [3]; sheet "Src", effect of the variant peptide relative to its reference peptide in the pTyr-Var library screen): 0.2529
Phosphorylation Rate (c-Src kinase domain [2]): 0.258 s⁻¹

Ac-WDLSEYSFKDP-NH2 [ITGA3_Y237_YF]
Phosphorylation Rate (c-Src kinase domain [2]): 0.555 s⁻¹

DRVALYVAREG [AACS_Y117_I118V]
Fer mean of log2(enrichment) (Fer kinase domain; [10]): -1.031
Fer enrich. R1 (Fer kinase domain; [11]): 0.6342
Fer enrich. R3 (Fer kinase domain; [12]): 0.3786
Fer enrich. R4 (Fer kinase domain; [13]): 0.4545
Fer difference (mean log2 variant - mean log2 reference) (Fer kinase domain; [14]): 0.05113
Fer hit? (Fer kinase domain; [15]): FALSE
difference (EPHB1 kinase domain; [16]): -0.2676
mean of log2(variant) (EPHB1 kinase domain; [17]): -0.8888
difference (EPHB2 kinase domain; [16]): 0.3459
mean of log2(variant) (EPHB2 kinase domain; [17]): -0.6512
difference (FGFR3 kinase domain; [16]): -0.06288
mean of log2(variant) (FGFR3 kinase domain; [18]): -0.601
Fes mean of log2(enrichment) (Fes; mean of log2 of enrichment over R1-R6): -0.04177
Fes difference (mean log2 variant - mean log2 reference) (Fes; [14]): -0.2234
difference (FGFR1 kinase domain [4]; [16]): -0.08555
mean of log2(variant) (FGFR1 kinase domain [4]; [18]): -1.047
c-Src mean of log2(enrichment) (c-Src kinase domain [3]; [10]): -1.464
c-Src enrich. R1 (c-Src kinase domain [3]; [11]): 0.3697
c-Src enrich. R3 (c-Src kinase domain [3]; [12]): 0.2802
c-Src enrich. R4 (c-Src kinase domain [3]; [13]): 0.4218
c-Src difference (mean log2 variant - mean log2 reference) (c-Src kinase domain [3]; [14]): -0.2397
c-Src hit? (c-Src kinase domain [3]; [15]): FALSE
c-Abl mean of log2(enrichment) (c-Abl kinase domain [5]; [10]): -0.7858
c-Abl enrich. R1 (c-Abl kinase domain [5]; [11]): 0.555
c-Abl enrich. R3 (c-Abl kinase domain [5]; [12]): 0.7635
c-Abl enrich. R4 (c-Abl kinase domain [5]; [13]): 0.4657
c-Abl hit? (c-Abl kinase domain [5]; [15]): FALSE
Jak2 mean of log2(enrichment) (Jak2; mean of log2 of enrichment over R1-R3): -0.2901
Jak2 enrich. R1 (Jak2; [11]): 0.73
Jak2 enrich. R3 (Jak2; [12]): 0.9423
Jak2 difference (mean log2 variant - mean log2 reference) (Jak2; [14]): -0.3116
Jak2 hit? (Jak2; [15]): FALSE
difference (Grb2 SH2 domain; Grb2 SH2, mean of log2(variant) minus mean of log2(reference)): -0.1132
mean of log2(variant) (Grb2 SH2 domain; Grb2 SH2, mean of log2 enrichment of variant, R1-R3): -0.29
hit? (Grb2 SH2 domain; Grb2 SH2, variant versus reference significant hit call): FALSE
AncSZ mean of log2(enrichment) (AncSZ kinase domain; mean of log2 of enrichment over R1-R5): -0.4041
AncSZ enrich. R1 (AncSZ kinase domain; [11]): 1.153
AncSZ enrich. R3 (AncSZ kinase domain; [12]): 0.7411
AncSZ enrich. R4 (AncSZ kinase domain; [13]): 0.5554
AncSZ enrich. R5 (AncSZ kinase domain; pTyr-Var library, enrichment score, replicate 5): 0.4897
AncSZ difference (mean log2 variant - mean log2 reference) (AncSZ kinase domain; [14]): -0.326
AncSZ hit? (AncSZ kinase domain; [15]): FALSE
difference (c-Src SH2 domain; [16]): -0.4301
mean of log2(variant) (c-Src SH2 domain; mean of log2 enrichment of variant peptide, R1-R3): -1.56
difference (SHP2 C-SH2 domain; SHP2-C SH2, mean of log2(variant) minus mean of log2(reference)): -0.5364
mean of log2(variant) (SHP2 C-SH2 domain; SHP2-C SH2, mean of log2 enrichment of variant, R1-R3): -0.6877
hit? (SHP2 C-SH2 domain; SHP2-C SH2, variant versus reference significant hit call): FALSE
Fyn mean of log2(enrichment) (Fyn kinase domain [6]; [10]): -1.274
Fyn enrich. R1 (Fyn kinase domain [6]; [11]): 0.7923
Fyn enrich. R3 (Fyn kinase domain [6]; [12]): 0.2683
Fyn enrich. R4 (Fyn kinase domain [6]; [13]): 0.2456
Fyn difference (mean log2 variant - mean log2 reference) (Fyn kinase domain [6]; [14]): 0.04124
Fyn hit? (Fyn kinase domain [6]; [15]): FALSE
Hck mean of log2(enrichment) (Hck kinase domain; mean of log2(variant) / mean of log2(reference), R1-R4): 0.6801
Hck enrich. R1 (Hck kinase domain; [11]): 1.248
Hck enrich. R3 (Hck kinase domain; [12]): 0.3794
Hck enrich. R4 (Hck kinase domain; [13]): 0.204
Hck difference (variant - reference) (Hck kinase domain; [14]): 0.1112
Hck hit? (Hck kinase domain; [15]): FALSE
difference (MERTK kinase domain; [16]): -0.4526
mean of log2(variant) (MERTK kinase domain; [17]): -1.84

Ac-GAEEEIYGEFEAKKKG-NH2 [SrcTide (1995) peptide Ac-…-NH2]
KM (μM) of phosphorylation, Michaelis-Menten analysis, ADP-Quest assay [7]: 64 µM

Ac-GAEEEIYGIFGAKKKG-NH2 [SrcTide (2014) peptide Ac-…-NH2]
KM (μM) of phosphorylation, Michaelis-Menten analysis, ADP-Quest assay [7]: 7 µM

B1: SHP2 D61V: human full-length SHP2 (residues 1–526; C459E, D61V) (protein, UniProt Q06124 2-593, looked up, variant C459E D61V)
Tyrosine-protein phosphatase …: TSRRWFHPNITGVEAENLLLTRGVDGSFLARPSKSNPGDFTLSVRRNGAVTHIKIQNTGVYYDLYGGEKFATLAELVQYYMEHHGQLKEKNGDVIELKYPLNCADPTSERWFHGHLSGKEAEKLLTEKGKHGSFLVRESQSHPGDFVLSVRTGDDKGESNDGKSKVTHVMIRCQELKYDVGGGERFDSLTDLVEHYKKNPMVETLGTVLQLKQPLNTTRINAAEIESRVRELSKLAETTDKVKQGFWEEFETLQQQECKLLYSRKEGQRQENKNKNRYKNILPFDHTRVVLHDGDPNEPVSDYINANIIMPEFETKCNNSKPKKSYIATQGCLQNTVNDFWRMVFQENSRVIVMTTKEVERGKSKCVKYWPDEYALKEYGVMRVRNVKESAAHDYTLRELKLSKVGQGNTERTVWQYHFRTWPDHGVPSDPGGVLDFLEEVHHKQESIMDAGPVVVHESAGIGRTGTFIVIDILIDIIREKGVDCDIDVPKTIQMVRSQRSGMVQTEAQYRFIYMAVQHYIETLQRRIEEEQKSKRKGHEYTNIKYSLADQTSGDQSPLPPCTPTPPCAEMREDSARVYENVGLMQQQKSFR
phosphorylation of intact SHP2 by FGFR1 (FGFR1 kinase domain [8]): dramatically enhanced phosphorylation
phosphorylation of intact SHP2 by Fyn (Fyn kinase domain [9]): dramatically enhanced phosphorylation
